The values below come from patent publication US20260070902A1, “SULFONYL DERIVATIVES AS CCR6 INHIBITORS” (Hoffmann-La Roche Inc., priority 2022, published 2026).

Common to all, as to assay type: cell-based
Experiment [1] has as its target T1, human CCR6 (Homo sapiens, UniProt P51684).
T1 sequence (P51684 1-374): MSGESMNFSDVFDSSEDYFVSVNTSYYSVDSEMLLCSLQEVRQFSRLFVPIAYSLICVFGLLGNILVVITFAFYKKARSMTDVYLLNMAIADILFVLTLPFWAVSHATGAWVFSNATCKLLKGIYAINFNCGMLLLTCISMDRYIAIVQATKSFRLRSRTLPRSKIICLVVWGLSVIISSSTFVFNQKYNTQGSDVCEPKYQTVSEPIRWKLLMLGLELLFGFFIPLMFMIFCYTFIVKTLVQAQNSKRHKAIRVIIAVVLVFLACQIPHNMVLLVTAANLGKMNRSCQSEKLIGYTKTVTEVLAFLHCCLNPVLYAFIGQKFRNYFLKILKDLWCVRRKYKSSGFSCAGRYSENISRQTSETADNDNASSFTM
As to the kind of experiment: Human CCR6-CRE reporter assay. Set-up: The second construct contained the open reading frame of human CCR6 in the pUNO1 backbone; host or cells: 293FT cells. Conditions: relative -Log IC50; 293FT cells transfected with human CCR6 and CRE-luciferase reporter; 6 μM Forskolin, 6 nM CCL20; 5 h. The method in brief:
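293FT cells transiently co-transfected with human CCR6 and a CRE-luc2P reporter, used 48 h later. Compounds incubated with cells in medium containing 6 μM Forskolin and 6 nM CCL20 (assay-medium levels), 0.1% DMSO final, 5 h at 37° C; luminescence read, relative −Log IC50 from four-parameter fit.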
In general terms: Reporter assays use an easily measured gene product as a stand-in for the process of interest.

Experiment [2] deals with Human CD4+ T cells. As to the kind of experiment: CD4+ T cells chemotaxis assay towards CCL20. The note with it: Homo sapiens, CD4+ T cell, 3 h, relative -Log IC50, human CD4+ T cells stimulated with anti-CD3 and anti-CD28, migration towards 150 ng/ml CCL20. The text has this:
CD4+ T Cells Chemotaxis Assay Towards CCL20
Human CD4+ T cells were isolated from buffy coats of healthy donors using a CD4+ T Cell Isolation Kit (Miltenyi Biotec130-096-533). Isolated T cells were stimulated overnight with anti-CD3 and anti-CD28 antibodies (Biolegend 300314/302934) in growth medium (RPMI1640, 10% heat-inactivated FBS, 1× pen/strep (Gibco 15140)). For the chemotaxis assay, Corning Transwell plates were used with a pore size of 5 m (Corning 3388). T cells were counted and diluted to 6*10^6 cells/ml in chemotaxis medium (RPMI1640, 1% BSA, pen/strep). Compounds were four-fold serially diluted in DMSO. Further dilutions were made in chemotaxis medium. Cells were incubated with test compounds for 30 min at 37° C. prior to initiation of the assay (3*10^6 cells/ml). Final DMSO concentration in the assay was 0.2%. Wells of the Transwell plates were filled with 200 μl chemotaxis medium containing 150 ng/ml CCL20 (R&D systems 360-MP). 50 μl of the cell/compound suspension was added to the inserts of the Transwell plates (150,000 cells/insert). The Transwell plates were placed in an incubator at 37° C., 5% CO2 for 3 h. After 3 h, the number of migrated cells was quantified using CellTiter Glo (Promega). Percentage inhibition values were calculated based on the low and high signal obtained with 0.2% DMSO in chemotaxis medium without and with CCL20, respectively. The relative −Log IC50 was determined with GraphPad Prism 9 using a four-parameter dose-response model.

The target in experiment [3] is T1, human CCR6. Description: CHO-K1 CCR6 chemotaxis assay towards CCL20. Conditions: relative -Log IC50; CHO-K1 cells overexpressing human CCR6; migration towards 100 ng/ml CCL20; 4 h. The essentials:
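Human CCR6-overexpressing CHO-K1 cells (2*10^6 cells/ml) were preincubated 30 min at 37 °C with compound (0.2% DMSO), then allowed to migrate 4 h through 8 µm Transwell pores toward 100 ng/ml CCL20. Migrated cells were counted by CellTiter Glo. −Log IC50 came from four-parameter fits normalised to DMSO without/with CCL20.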

Turning to `NC(=O)c1nnc2ccc(-c3ccc(S(=O)(=O)N4CCC(Nc5ccc(S(F)(F)(F)(F)F)cc5)CC4)cc3)cn12` [Example 26, 6-{4-[(4-{[4-(pentafluoro-λ^6-sulfanyl)phenyl]Amino}piperidin-1-yl)sulfonyl]phenyl}-[1,2,4]triazolo[4,3-a]pyridine-3-carboxamide], the figures for the IC50 in experiment [1], in experiment [2] and in experiment [3] were 50.1 nM, 15.8 nM and 100 nM, respectively.
In the case of `Cc1nnc2cnc(-c3ccc(S(=N)(=O)[C@H]4CC[C@H](Nc5ccc(S(F)(F)(F)(F)F)cc5)CC4)cc3)cn12` (stereo partly drawn) [Example 170, (4-{3-methyl-[1,2,4]triazolo[4,3-a]pyrazin-6-yl}phenyl) [trans-4-{[4-(pentafluoro-λ^6-sulfanyl)phenyl]amino}cyclohexyl](imino)-λ^6-sulfanone], the half-inhibitory concentration (IC50) (as a rule, the midpoint of a concentration-inhibition curve) in experiment [1] is 501 nM; in experiment [2], 10000 nM; in experiment [3], 2000 nM.
On to `CC(C)c1nnc2ccc(-c3ccc(S(=O)(=O)[C@H]4CC[C@H](Nc5ccc(S(F)(F)(F)(F)F)cc5)CC4)cc3)cn12` [Example 35, 4-(pentafluoro-λ^6-sulfanyl)-N-[trans-4-{4-[3-(propan-2-yl)-[1,2,4]triazolo[4,3-a]pyridin-6-yl]benzenesulfonyl}cyclohexyl]aniline], for which the IC50 in experiment [1] was 79.4 nM; in experiment [2], 0.501 nM; in experiment [3], 3.98 nM.
On to `CC(C)c1nnc2ccc(-c3ccc(S(=N)(=O)[C@H]4CC[C@H](Nc5ccc(S(F)(F)(F)(F)F)cc5)CC4)cc3)cn12` (relative stereo) [Example 102, {4-[3-(propan-2-yl)-[1,2,4]triazolo[4,3-a]pyridin-6-yl]phenyl}[trans-4-{[4-(pentafluoro-λ^6-sulfanyl)phenyl]Amino}cyclohexyl](imino)-λ^6-sulfanone], for which the IC50 in experiment [1] was 126 nM; in experiment [2] it was 50.1 nM; in experiment [3], 158 nM.
As for `Cc1n[nH]c2ccc(-c3ccc(S(=N)(=O)[C@H]4CC[C@H](Nc5ccc(S(F)(F)(F)(F)F)cc5)CC4)cc3)cc12` (stereo partly drawn) [Example 86, [4-(3-methyl-1H-indazol-5-yl)phenyl][trans-4-{[4-(pentafluoro-λ^6-sulfanyl)phenyl]Amino}cyclohexyl](imino)-λ^6-sulfanone], the IC50 is 126 nM in experiment [1], 79.4 nM in experiment [2] and 79.4 nM in experiment [3].
For `CC(C)c1nnc2cnc(-c3ccc(S(=N)(=O)[C@H]4CC[C@H](Nc5ccc(S(F)(F)(F)(F)F)cc5)CC4)cc3)cn12` (stereo partly drawn) [Example 162, {4-[3-(propan-2-yl)-[1,2,4]triazolo[4,3-a]pyrazin-6-yl]phenyl}[trans-4-{[4-(pentafluoro-λ^6-sulfanyl)phenyl]amino}cyclohexyl](imino)-λ^6-sulfanone], the half-maximal inhibitory concentration (IC50) was 100 nM in experiment [1], 79.4 nM in experiment [2] and 63.1 nM in experiment [3].
On to `N#Cc1cnc2ccc(-c3ccc(S(=N)(=O)[C@H]4CC[C@H](Nc5ccc(S(F)(F)(F)(F)F)cc5)CC4)cc3)cn12` (stereo partly drawn) [Example 90, 6-(4-{[trans-4-{[4-(pentafluoro-λ^6-sulfanyl)phenyl]Amino}cyclohexyl]sulfonimidoyl}phenyl)imidazo[1,2-a]pyridine-3-carbonitrile], for which the IC50 in experiment [1] is 158 nM; in experiment [2] it was 25.1 nM; in experiment [3], 63.1 nM.
Regarding `Cc1[nH]nc2ccc(-c3ccc(S(=O)(=O)[C@H]4CC[C@H](Nc5ccc(S(F)(F)(F)(F)F)cc5)CC4)cc3)cc12` [Example 6, 4-(pentafluoro-λ^6-sulfanyl)-N-[trans-4-[4-(3-methyl-2H-indazol-5-yl)benzenesulfonyl]cyclohexyl]aniline], the values for the IC50 in experiment [1], in experiment [2] and in experiment [3] were 39.8 nM, 0.631 nM and 25.1 nM, respectively.
`CC(C)c1nnc2ccc(-c3ccc(S(=O)(=O)[C@H]4CC[C@H](Nc5ccc(S(F)(F)(F)(F)F)cc5)CC4)cc3)nn12` [Example 50, 4-(pentafluoro-λ^6-sulfanyl)-N-[trans-4-{4-[3-(propan-2-yl)-[1,2,4]triazolo[4,3-b]pyridazin-6-yl]benzenesulfonyl}cyclohexyl]aniline]: the 50% inhibitory concentration (IC50) in experiment [1] is 126 nM; in experiment [2] it was 25.1 nM; in experiment [3], 100 nM.
For the molecule `O=S(=O)(c1ccc(-c2ccc3nccn3c2)cc1)N1CCC(Nc2ccc(S(F)(F)(F)(F)F)cn2)CC1` [Example 173, N-[1-(4-{imidazo[1,2-a]pyridin-6-yl}benzenesulfonyl)piperidin-4-yl]-5-(pentafluoro-λ^6-sulfanyl)pyridin-2-amine], the IC50 in experiment [1] is 31.6 nM; in experiment [2], 2.51 nM; in experiment [3], 3.98 nM.
As for `Cc1nnc2ccc(-c3ccc(S(=O)(=O)[C@H]4CC[C@H](Nc5ccc(S(F)(F)(F)(F)F)cc5)CC4)cc3)cn12` [Example 11, 4-(pentafluoro-λ^6-sulfanyl)-N-[trans-4-(4-{3-methyl-[1,2,4]triazolo[4,3-a]pyridin-6-yl}benzenesulfonyl)cyclohexyl]aniline], the half-inhibitory concentration (IC50) was 100 nM in experiment [1], 3.98 nM in experiment [2] and 25.1 nM in experiment [3].
For the molecule `Cc1nnc2ccc(-c3ccc(S(=O)(=O)N4CCC(Nc5ccc(S(F)(F)(F)(F)F)cn5)CC4)cc3)cn12` [Example 174, N-[1-(4-{3-methyl-[1,2,4]triazolo[4,3-a]pyridin-6-yl}benzenesulfonyl)piperidin-4-yl]-5-(pentafluoro-λ^6-sulfanyl)pyridin-2-amine], the IC50 is 25.1 nM in experiment [1], 2.51 nM in experiment [2] and 5.01 nM in experiment [3].
Regarding `NC(=O)c1cnc2ccc(-c3ccc(S(=O)(=O)[C@H]4CC[C@H](Nc5ccc(S(F)(F)(F)(F)F)cc5)CC4)cc3)cn12` [Example 34, 6-(4-{[trans-4-{[4-(pentafluoro-λ^6-sulfanyl)phenyl]Amino}cyclohexyl]sulfonyl}phenyl)imidazo[1,2-a]pyridine-3-carboxamide], the IC50 in experiment [1] is 200 nM; in experiment [2], 63.1 nM; in experiment [3], 39.8 nM.
As to `N=S(=O)(c1ccc(-c2ccc3nccn3c2)cc1)[C@H]1CC[C@H](Nc2ccc(S(F)(F)(F)(F)F)cc2)CC1` (stereo partly drawn) [Example 87, (4-{imidazo[1,2-a]pyridin-6-yl}phenyl)[trans-4-{[4-(pentafluoro-λ^6-sulfanyl)phenyl]Amino}cyclohexyl](imino)-λ^6-sulfanone], the IC50 in experiment [1] is 200 nM; in experiment [2] it was 158 nM; in experiment [3] it was 126 nM.
As for `CC(C)c1nnc2ccc(-c3ccc(S(=O)(=O)N4CCC(Nc5ccc(S(F)(F)(F)(F)F)cn5)CC4)cc3)cn12` [Example 172, 5-(pentafluoro-λ^6-sulfanyl)-N-(1-{4-[3-(propan-2-yl)-[1,2,4]triazolo[4,3-a]pyridin-6-yl]benzenesulfonyl}piperidin-4-yl)pyridin-2-amine], the IC50 in experiment [1] was 20 nM; in experiment [2], 1 nM; in experiment [3], 7.94 nM.
Consider `NC(=O)c1cc(-c2ccc(S(=O)(=O)N3CCC(Nc4ccc(S(F)(F)(F)(F)F)cn4)CC3)cc2)ccn1` [Example 175, 4-{4-[(4-{[5-(pentafluoro-λ^6-sulfanyl)pyridin-2-yl]amino}piperidin-1-yl)sulfonyl]phenyl}pyridine-2-carboxamide], for which the 50% inhibitory concentration (IC50) is 20 nM in experiment [1], 5.01 nM in experiment [2] and 10 nM in experiment [3].
